Measured values taken from PMC10056986 (Pharmaceuticals, 2023).
Where a name gives a salt, the structure may show the parent alone.

How the values were obtained:
[1] = molecular target: 5HT2A (Homo sapiens, UniProt P28223); experiment: cell-based; details: agonist mode; read-out: EC50
[2] = molecular target: Alpha1a (Homo sapiens, UniProt P35348); experiment: cell-based; details: read-out: IC50
[3] = molecular target: CB2 (Homo sapiens, UniProt P34972); experiment: cell-based; details: read-out: IC50
[4] = molecular target: H2 (Homo sapiens, UniProt P25021); experiment: cell-based; details: read-out: EC50
[5] = molecular target: M1 (Homo sapiens, UniProt P11229); experiment: cell-based
[6] = molecular target: M2 (Homo sapiens, UniProt P08172); experiment: cell-based
[7] = molecular target: M3 (Homo sapiens, UniProt P20309); experiment: cell-based
[8] = system: RSV long; experiment: microbe, parasite or virus in culture; format: cell-based, respiratory syncytial virus; details: read-out: EC50 for Virus
[9] = system: HCV replicon 1b; experiment: microbe, parasite or virus in culture; format: cell-based; details: Hepatitis C virus, read-out: EC50 for Virus
[10] = in vitro
[11] = system: Influenza virus A/California/07/2009 (H1N1)pdm09; experiment: microbe, parasite or virus in culture; format: cell-based; details: H1N1, MDCK, read-out: EC50 (mean ± SD)
[12] = system: Influenza virus A/California/2/2014 (H3N2); experiment: microbe, parasite or virus in culture; format: cell-based; details: H3N2, MDCK, read-out: EC50 (mean ± SD)
[13] = system: A/PR/8/34 (H1N1); parameters: species or system BALB/c mice; details: mouse, in vivo
[14] = Cytotoxicity in MDCK cells without viral infection; details: dog
[15] = system: AD2; format: cell-based, human
[16] = system: influenza A virus WSN/33 (H1N1); parameters: species or system BALB/c mice; details: mouse, in vivo
[17] = molecular target: T1, CCKa (Homo sapiens, UniProt P32238); experiment: cell-based; details: read-out: IC50
T1 sequence (P32238 1-428): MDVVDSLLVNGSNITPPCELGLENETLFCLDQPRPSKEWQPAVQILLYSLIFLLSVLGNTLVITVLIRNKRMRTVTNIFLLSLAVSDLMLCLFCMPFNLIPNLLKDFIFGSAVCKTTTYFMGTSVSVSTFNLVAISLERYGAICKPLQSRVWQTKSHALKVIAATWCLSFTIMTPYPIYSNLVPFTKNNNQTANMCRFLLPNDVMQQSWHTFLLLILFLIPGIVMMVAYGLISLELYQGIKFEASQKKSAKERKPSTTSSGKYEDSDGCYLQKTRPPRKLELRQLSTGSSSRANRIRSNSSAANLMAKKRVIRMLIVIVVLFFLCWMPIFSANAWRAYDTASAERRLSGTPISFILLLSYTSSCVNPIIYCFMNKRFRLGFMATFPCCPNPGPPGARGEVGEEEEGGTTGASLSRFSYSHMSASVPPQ

[18] = system: AD2; format: cell-based, human; details: read-out: EC50
[19] = system: HPIV-3 C243; experiment: microbe, parasite or virus in culture; format: cell-based, human parainfluenza virus type 3; details: Human respirovirus 3, LLC-MK2, read-out: EC50 for Virus
[20] = in vitro; details: rhesus monkey

Chain of M2 (P08172 whole entry): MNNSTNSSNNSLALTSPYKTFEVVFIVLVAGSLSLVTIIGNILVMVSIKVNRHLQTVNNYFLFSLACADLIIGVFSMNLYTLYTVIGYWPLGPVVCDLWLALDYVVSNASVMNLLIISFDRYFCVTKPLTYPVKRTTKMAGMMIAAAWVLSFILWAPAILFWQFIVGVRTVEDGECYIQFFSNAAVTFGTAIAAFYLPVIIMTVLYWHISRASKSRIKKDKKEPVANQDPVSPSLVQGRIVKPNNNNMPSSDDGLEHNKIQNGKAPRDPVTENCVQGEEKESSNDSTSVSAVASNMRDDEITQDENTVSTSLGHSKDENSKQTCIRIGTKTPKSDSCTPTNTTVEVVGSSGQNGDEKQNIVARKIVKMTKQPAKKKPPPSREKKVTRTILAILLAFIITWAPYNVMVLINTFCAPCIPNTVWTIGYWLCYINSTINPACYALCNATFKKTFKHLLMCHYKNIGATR
Chain of M1 (P11229 whole entry): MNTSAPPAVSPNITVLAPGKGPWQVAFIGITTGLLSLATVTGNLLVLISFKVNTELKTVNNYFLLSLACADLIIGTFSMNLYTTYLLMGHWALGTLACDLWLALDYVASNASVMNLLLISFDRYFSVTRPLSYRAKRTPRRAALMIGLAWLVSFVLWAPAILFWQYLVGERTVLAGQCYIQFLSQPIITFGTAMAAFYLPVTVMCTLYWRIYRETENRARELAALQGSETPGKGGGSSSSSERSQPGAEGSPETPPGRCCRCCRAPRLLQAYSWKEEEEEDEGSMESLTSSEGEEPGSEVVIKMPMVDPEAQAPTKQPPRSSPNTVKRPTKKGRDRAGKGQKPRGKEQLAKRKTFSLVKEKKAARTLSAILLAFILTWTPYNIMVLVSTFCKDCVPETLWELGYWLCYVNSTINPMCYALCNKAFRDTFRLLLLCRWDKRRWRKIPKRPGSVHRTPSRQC
Chain of M3 (P20309 whole entry): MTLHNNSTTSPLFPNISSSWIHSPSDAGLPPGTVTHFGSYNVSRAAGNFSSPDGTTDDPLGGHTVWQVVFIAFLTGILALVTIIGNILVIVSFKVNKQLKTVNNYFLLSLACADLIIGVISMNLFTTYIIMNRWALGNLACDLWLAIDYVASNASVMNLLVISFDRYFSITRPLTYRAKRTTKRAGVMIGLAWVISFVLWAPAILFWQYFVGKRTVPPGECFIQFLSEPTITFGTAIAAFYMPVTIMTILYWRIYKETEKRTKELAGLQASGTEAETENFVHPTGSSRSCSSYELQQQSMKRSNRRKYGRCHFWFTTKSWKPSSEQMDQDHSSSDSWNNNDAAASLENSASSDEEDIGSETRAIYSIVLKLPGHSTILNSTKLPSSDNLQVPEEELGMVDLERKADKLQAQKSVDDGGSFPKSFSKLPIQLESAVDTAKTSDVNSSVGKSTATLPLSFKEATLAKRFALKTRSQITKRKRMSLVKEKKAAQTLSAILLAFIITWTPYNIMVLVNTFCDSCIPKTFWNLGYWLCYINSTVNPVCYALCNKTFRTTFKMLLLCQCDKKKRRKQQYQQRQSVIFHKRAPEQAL
Chain of 5HT2A (P28223 whole entry): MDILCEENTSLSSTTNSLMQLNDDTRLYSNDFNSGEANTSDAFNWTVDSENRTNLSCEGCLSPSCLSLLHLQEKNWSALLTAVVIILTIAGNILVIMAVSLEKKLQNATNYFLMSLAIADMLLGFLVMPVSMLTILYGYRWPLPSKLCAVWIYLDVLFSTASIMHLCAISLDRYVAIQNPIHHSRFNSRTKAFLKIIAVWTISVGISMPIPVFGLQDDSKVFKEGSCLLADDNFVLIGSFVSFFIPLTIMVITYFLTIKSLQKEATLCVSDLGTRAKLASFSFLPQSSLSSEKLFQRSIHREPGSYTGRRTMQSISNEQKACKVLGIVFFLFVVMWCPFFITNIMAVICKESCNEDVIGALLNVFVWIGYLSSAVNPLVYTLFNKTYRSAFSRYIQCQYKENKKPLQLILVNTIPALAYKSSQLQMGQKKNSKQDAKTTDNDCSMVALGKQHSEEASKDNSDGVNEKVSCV
Chain of CB2 (P34972 whole entry): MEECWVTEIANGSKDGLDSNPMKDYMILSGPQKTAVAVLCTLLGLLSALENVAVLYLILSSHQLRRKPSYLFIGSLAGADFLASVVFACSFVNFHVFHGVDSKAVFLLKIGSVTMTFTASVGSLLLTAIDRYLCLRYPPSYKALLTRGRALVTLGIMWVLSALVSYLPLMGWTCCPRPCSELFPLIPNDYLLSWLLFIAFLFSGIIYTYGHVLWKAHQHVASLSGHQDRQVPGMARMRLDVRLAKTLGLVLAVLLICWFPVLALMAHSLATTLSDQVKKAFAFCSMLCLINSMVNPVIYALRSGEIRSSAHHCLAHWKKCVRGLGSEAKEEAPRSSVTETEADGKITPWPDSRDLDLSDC
Chain of H2 (P25021 whole entry): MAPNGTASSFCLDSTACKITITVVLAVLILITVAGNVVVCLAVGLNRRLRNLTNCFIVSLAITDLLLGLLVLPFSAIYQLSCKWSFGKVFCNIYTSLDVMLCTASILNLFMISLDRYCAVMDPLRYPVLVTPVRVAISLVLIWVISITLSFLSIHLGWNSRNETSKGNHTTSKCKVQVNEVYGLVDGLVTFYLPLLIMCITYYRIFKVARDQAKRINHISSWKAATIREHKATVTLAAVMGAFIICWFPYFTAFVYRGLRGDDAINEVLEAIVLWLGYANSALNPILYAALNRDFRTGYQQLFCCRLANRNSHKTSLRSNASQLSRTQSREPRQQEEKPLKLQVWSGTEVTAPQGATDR
Chain of Alpha1a (P35348 whole entry): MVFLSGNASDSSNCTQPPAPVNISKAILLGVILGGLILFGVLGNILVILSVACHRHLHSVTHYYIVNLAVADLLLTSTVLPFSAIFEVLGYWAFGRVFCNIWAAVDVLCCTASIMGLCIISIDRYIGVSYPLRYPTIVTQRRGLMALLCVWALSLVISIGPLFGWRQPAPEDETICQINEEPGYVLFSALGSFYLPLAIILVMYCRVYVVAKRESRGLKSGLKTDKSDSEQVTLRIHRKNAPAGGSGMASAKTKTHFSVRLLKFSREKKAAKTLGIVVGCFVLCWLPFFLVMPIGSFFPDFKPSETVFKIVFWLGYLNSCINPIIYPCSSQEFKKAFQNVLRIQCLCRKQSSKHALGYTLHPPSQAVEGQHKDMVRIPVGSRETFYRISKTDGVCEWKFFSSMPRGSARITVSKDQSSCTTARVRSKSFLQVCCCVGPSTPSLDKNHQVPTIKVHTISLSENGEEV

`NCCc1c[nH]c2ccc(C(N)=O)cc12` [5-CT, reference compound] gave an EC50 [1] of 9.35 nM.

Work on `COc1ccccc1N1CCN(CCCNc2c(C)c(=O)n(C)c(=O)n2C)CC1` [5-Methylurapidil, reference compound] yielded an IC50 [2] of 3.65 nM.

For `COc1ccc(C(=O)c2c(C)n(CCN3CCOCC3)c3cc(I)ccc23)cc1` [AM630, reference compound], the IC50 [3] was 234 nM.

Work on `Cc1nc(N)sc1CCN` [Amthamine dihydrobromide, reference compound] yielded an EC50 [4] of 1340 nM.

`C#CCOC(=O)C1=CCCN(C)C1` [Arecaidine propargyl ester, reference compound] showed an EC50 [5] of 0.78 nM, an EC50 [6] of 76.2 nM and an EC50 [7] of 0.31 nM.

Compound `O=c1n(Cc2nc3ccccc3n2CCCCO)c2cnccc2n1C1CC1` [BMS-433771, reference compound] has an EC50 [8] of 14 nM.

Compound `COC(=O)N[C@H](C(=O)N1CCC[C@H]1c1nc(-c2ccc(-c3ccc(-c4c[nH]c([C@@H]5CCCN5C(=O)[C@@H](NC(=O)OC)C(C)C)n4)cc3)cc2)c[nH]1)C(C)C` [BMS-790052, reference compound] has an EC50 [9] of 0.021 nM and a CC50 [10] of over 3 nM.

In the case of `O=C1c2c(O)c(=O)ccn2N([C@@H]2c3ccccc3SCc3c2ccc(F)c3F)[C@@H]2COCCN12` [Baloxavir], the EC50 [11] is reported as 1.06 ± 0.22 nM, the EC50 [12] is reported as 0.61 ± 0.02 nM and the mortality rate [13] is reported as 40%. It also gave a CC50 [14] of 14400 ± 1520 nM.

`Nc1nc2ccc(Cl)cc2c2nc(-c3ccco3)nn12` [CGS-15943, reference compound] gave an IC50 [15] of 0.11 nM.

For `NC(=O)c1nc(F)c[nH]c1=O` [Favipiravir], the “animals died (of n = 8)” value [16] was “six” and the “day on which body weight of surviving mice began to recover” value [16] was 9 days.

Work on `CCCCCN(CCCCC)C(=O)C(CCC(=O)O)NC(=O)c1ccc(Cl)c(Cl)c1` (stereo not drawn) [Lorglumide, reference compound] yielded an IC50 [17] of 256 nM.

Compound `CCNC(=O)[C@H]1O[C@@H](n2cnc3c(N)ncnc32)[C@H](O)[C@@H]1O` [NECA, reference compound] has an EC50 [18] of 27.8 nM.

In the case of `NC(=O)c1ncn([C@@H]2O[C@H](CO)[C@@H](O)[C@H]2O)n1` [Ribavirin, reference compound], the EC50 [19] is reported as 20300 nM and the CC50 [20] is reported as over 100000 nM.
